This is an account of results in ChEMBL document CHEMBL4837205, “Design, synthesis and biological evaluations of a series of Pyrido[1,2-a]pyrimidinone derivatives as novel selective FGFR inhibitors” (Eur J Med Chem, 2021).

The nature of the data set: physchem. The note with it: buffer, pH 7.4.

For orientation: solubility means the dissolved amount per volume that the medium holds.

In brackets after ≈: the same amount, converted by molar mass.

`COc1cc(OC)cc(N(CCNC(C)C)c2ccc3ncc(-c4cnn(CCN(C)C)c4)c(=O)n3c2)c1` gave a solubility of less than 10 µg/mL.

In turn, `COc1cc(OC)cc(N(CCNC(C)C)c2ccc3ncc(-c4cnn(C5CN(C(C)=O)C5)c4)c(=O)n3c2)c1` gave a solubility of 59.1 µg/mL (≈ 108 µM).
